Data from patent US9187465B2, “Oxazole tyrosine kinase inhibitors” (Sareum Limited, priority 2007, dated 2015).
pIC50: −log10 of the molar value.

Columns and labels:
human Aurora A = biological target: T1, human Aurora A (Homo sapiens, UniProt O14965); test: Aurora A kinase assay (DELFIA enzyme inhibition); type: biochemical; details: read-out: Aurora A IC50
T1 construct: Histidine tag (N); host or cells: Sf9 insect cells (baculovirus)
T1 sequence (O14965 1-403): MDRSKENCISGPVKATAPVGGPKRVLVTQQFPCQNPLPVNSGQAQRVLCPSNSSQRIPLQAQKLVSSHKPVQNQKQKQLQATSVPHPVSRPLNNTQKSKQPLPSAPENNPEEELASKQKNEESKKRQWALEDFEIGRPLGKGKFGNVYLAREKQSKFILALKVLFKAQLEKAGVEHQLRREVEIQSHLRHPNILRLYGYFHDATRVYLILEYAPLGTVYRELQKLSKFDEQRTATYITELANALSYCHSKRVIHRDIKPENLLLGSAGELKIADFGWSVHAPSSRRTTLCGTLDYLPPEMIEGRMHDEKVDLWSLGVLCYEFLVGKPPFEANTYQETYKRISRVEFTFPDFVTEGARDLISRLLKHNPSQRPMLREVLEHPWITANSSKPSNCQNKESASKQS
In short: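 DELFIA read-out (time-resolved Eu fluorescence, 620 nm emission) after Neutravidin capture of biotinylated peptide substrate and antibody detection. Reaction: Ni-agarose-purified Aurora A, 30 min at room temperature, stopped with 100 mM EDTA.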

HCT116 cells = test: Anti-proliferative activity, Alamar Blue assay, HCT116; type: cell-based; details: Homo sapiens, HCT-116, 72 hours, read-out: cell proliferation IC50
Experimental: (§1) The anti-proliferative activities of compounds of the invention are determined by measuring the ability of the compounds to inhibition of cell growth in a number of cell lines. Inhibition of cell growth is measured using the Alamar Blue assay (Nociari et al., Journal of Immunological Methods (1998) 213, 157-167). The method is based on the ability of viable cells to reduce resazurin to its fluorescent product resorufin. For each proliferation assay cells are plated onto 96 well plates and allowed to recover for 16 hours prior to the addition of inhibitor compounds for a further 72 hours. At the end of the incubation period 10% (v/v) Alamar Blue is added and incubated for a further 6 hours prior to determination of fluorescent product at Excitation 535 nm and Emission 590 nm. In the case of the non-proliferating cell assay cells are maintained at confluence for 96 hour prior to the addition of inhibitor compounds for a further 72 hours. The number of viable cells is determined by Alamar Blue assay as before. All cell lines are obtained from ECACC (European Collection of cell Cultures).

human FLT3 = biological target: T2, human FLT3 (Homo sapiens, UniProt P36888); test: FLT3 kinase assay (DELFIA enzyme inhibition); type: biochemical
T2 construct: a construct expressing the human FLT3 (564-993) with an amino terminal GST tag; host or cells: Sf9 insect cells (baculovirus)
T2 sequence (P36888 564-993): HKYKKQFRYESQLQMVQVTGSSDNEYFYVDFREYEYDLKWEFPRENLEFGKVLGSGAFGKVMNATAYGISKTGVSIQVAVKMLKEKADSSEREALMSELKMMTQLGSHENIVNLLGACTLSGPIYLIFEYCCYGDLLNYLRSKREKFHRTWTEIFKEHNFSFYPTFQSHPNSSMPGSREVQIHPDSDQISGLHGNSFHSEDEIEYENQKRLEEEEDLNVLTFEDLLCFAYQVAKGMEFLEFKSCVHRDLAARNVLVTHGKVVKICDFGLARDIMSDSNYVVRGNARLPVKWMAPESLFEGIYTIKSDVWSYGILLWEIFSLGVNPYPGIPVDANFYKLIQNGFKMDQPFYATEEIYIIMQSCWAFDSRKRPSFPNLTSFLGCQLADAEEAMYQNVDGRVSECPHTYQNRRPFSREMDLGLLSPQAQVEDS
In short: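 GST-tagged human FLT3 (564-993), expressed in sf9 cells, phosphorylated a biotinylated Gastrin Precursor (Tyr 87)-derived peptide for 30 min at room temperature before EDTA stop. The captured peptide was detected by Eu-labelled anti-phosphotyrosine DELFIA time-resolved fluorescence. IC50 was derived from % inhibition curves.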

human FLT4 = biological target: T3, human FLT4 (Homo sapiens, UniProt P35916); test: FLT4 kinase assay (DELFIA enzyme inhibition); type: biochemical; details: read-out: FLT4 IC50
T3 construct: a construct expressing the human FLT4 (789-1207) with an amino terminal GST tag; host or cells: Sf9 insect cells (baculovirus)
In short: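 GST-tagged human FLT4 (789-1207) from Sf9 cells phosphorylates a biotinylated MET (Tyr1253)-derived peptide for 30 min at room temperature, stopped with EDTA. Phosphopeptide is captured on Neutravidin and detected with Eu-labelled anti-phosphotyrosine antibody by time-resolved fluorescence; IC50 from % inhibition curves.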

[1] = test system: A549 human lung carcinoma cells; test: Anti-proliferative activity, Alamar Blue assay, A549; type: cell-based; details: A549, 72 h, read-out: cell growth IC50
Experimental: as §1

T3 sequence (P35916 789-1207): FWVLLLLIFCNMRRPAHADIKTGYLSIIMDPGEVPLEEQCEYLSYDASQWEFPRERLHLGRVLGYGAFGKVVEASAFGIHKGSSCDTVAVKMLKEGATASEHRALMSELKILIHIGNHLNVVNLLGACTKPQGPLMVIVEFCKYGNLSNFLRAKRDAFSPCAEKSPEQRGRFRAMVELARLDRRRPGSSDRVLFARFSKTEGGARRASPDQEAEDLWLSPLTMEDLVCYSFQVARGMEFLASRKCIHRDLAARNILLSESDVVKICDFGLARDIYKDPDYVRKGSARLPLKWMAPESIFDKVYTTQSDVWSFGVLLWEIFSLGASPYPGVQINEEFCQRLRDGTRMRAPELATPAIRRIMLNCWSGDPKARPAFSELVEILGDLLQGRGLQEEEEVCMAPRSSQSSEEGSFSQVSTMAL

Row | Structure (SMILES) | pIC50 (human Aurora A) | pIC50 (HCT116 cells) | pIC50 (human FLT3) | pIC50 (human FLT4) | pIC50 [1]
1 | NC(=O)c1nc(-c2c(F)cccc2F)oc1-c1ccc(OCCN2CCOCC2)cc1 [Example F-13, 2-(2,6-difluorophenyl)-5-(4-(2-morpholinoethoxy)phenyl)oxazole-4-carboxamide] | > 5.00 | > 5.00 | > 5.00 | > 5.00 | 
2 | CNC(=O)N1CCN(c2ccc(Nc3oc(-c4c(F)cccc4F)nc3C(N)=O)cc2)CC1 [Example J-3, 4-(4-(4-carbamoyl-2-(2,6-difluorophenyl)oxazol-5-ylamino)phenyl)-N-methylpiperazine-1-carboxamide] | > 5.00 | > 5.00 | > 5.00 | > 5.00 | 
3 | CN1CCN(c2ccc(Nc3oc(-c4c(F)cccc4F)nc3C(N)=O)cc2)CC1 [Example Q-7, 2-(2,6-difluorophenyl)-5-(4-(4-methylpiperazin-1-yl)phenylamino)oxazole-4-carboxamide] | > 5.00 | > 5.00 | > 5.00 | > 5.00 | 
4 | NC(=O)c1nc(-c2c(F)cccc2F)oc1Nc1ccc(OCCN2CCOCC2)cc1 [Example Q-8, 2-(2,6-difluorophenyl)-5-(4-(2-morpholinoethoxy)phenylamino)oxazole-4-carboxamide] | > 5.00 | > 5.00 | > 5.00 | > 5.00 | 
5 | CC(=O)N1CCN(c2ccc(Nc3oc(-c4c(F)cccc4F)nc3C(N)=O)cc2)CC1 [Example Q-9, 5-(4-(4-acetylpiperazin-1-yl)phenylamino)-2-(2,6-difluorophenyl)oxazole-4-carboxamide] | > 5.00 | > 5.00 | > 5.00 | > 5.00 | 
6 | CN(C)S(=O)(=O)c1ccc(Nc2oc(-c3c(F)cccc3F)nc2C(N)=O)cc1 [Example Q-26, 2-(2,6-difluorophenyl)-5-(4-(N′,N′-dimethylsulfonamide)phenylamino)oxazole-4-carboxamide] | > 5.00 |  | > 5.00 | > 5.00 | > 5.00
7 | NC(=O)c1nc(-c2c(F)cccc2F)oc1Nc1ccc(S(=O)(=O)N2CCCCC2)cc1 [Example Q-28, 2-(2,6-difluorophenyl)-5-(4-(piperidin-1-ylsulfonyl)phenylamino)oxazole-4-carboxamide] | > 4.00 |  | > 4.00 | > 5.00 | > 5.00
8 | COc1ccccc1Nc1nc(C(N)=O)c(-c2ccc(N3CCNCC3)cc2)o1 [Example R-11, 2-(2-methoxyphenylamino)-5-(4-(piperazin-1-yl)phenyl)oxazole-4-carboxamide] | > 5.00 | > 5.00 | > 5.00 | > 5.00 | 
9 | CN1CCC(NC(=O)c2ccc(Nc3oc(-c4c(F)cccc4F)nc3C(N)=O)cc2)CC1 [Example U-18, 5-(4-((1-methylpiperidin-4-yl)carbamoyl)phenylamino)-2-(2,6-difluorophenyl) oxazole-4-carboxamide] | > 5.00 |  | > 5.00 | > 5.00 | 
10 | NC(=O)c1nc(-c2c(F)cccc2F)oc1Nc1ccc(C(=O)N2CCOCC2CO)cc1 (centres unmarked) [Example U-19, 2-(2,6-difluorophenyl)-5-(4-(3-(hydroxymethyl)morpholine-4-carbonyl)phenylamino)oxazole-4-carboxamide] | > 5.00 |  | > 5.00 | > 5.00 | 

The next lines start with the values.

Row | pIC50 (human Aurora A) | pIC50 (HCT116 cells) | pIC50 (human FLT3) | pIC50 (human FLT4) | pIC50 [1] | Structure (SMILES)
11 | > 4.00 |  | > 5.00 | > 5.00 |  | CC(C)(C)OC(=O)N1CCC(NC(=O)c2ccc(Nc3oc(-c4c(F)cccc4F)nc3C(N)=O)cc2)CC1 [Example U-20, tert-butyl 4-(4-(4-carbamoyl-2-(2,6-difluorophenyl)oxazol-5-ylamino)benzamido) piperidine-1-carboxylate]
12 | > 5.00 |  | > 5.00 | > 5.00 |  | NC(=O)c1nc(-c2c(F)cccc2F)oc1Nc1ccc(C(=O)NC2CCNCC2)cc1 [Example U-21, 2-(2,6-difluorophenyl)-5-(4-(piperidin-4-ylcarbamoyl)phenylamino)oxazole-4-carboxamide]
13 | > 5.00 |  | > 5.00 | > 5.00 |  | CC(C)(C)OC(=O)NCC1CN(C(=O)c2ccc(Nc3oc(-c4c(F)cccc4F)nc3C(N)=O)cc2)CCO1 (centres unmarked) [Example U-22, tert-butyl (4-(4-(4-carbamoyl-2-(2,6-difluorophenyl)oxazol-5-ylamino)benzoyl)morpholin-2-yl)methylcarbamate]
14 | > 5.00 |  | > 5.00 | > 5.00 |  | NCC1CN(C(=O)c2ccc(Nc3oc(-c4c(F)cccc4F)nc3C(N)=O)cc2)CCO1 (centres unmarked) [Example U-23, 5-(4-(2-(aminomethyl)morpholine-4-carbonyl)phenylamino)-2-(2,6-difluorophenyl) oxazole-4-carboxamide]
15 | > 5.00 |  | > 5.00 | > 5.00 |  | CN1CCN(C(=O)c2ccc(Nc3oc(-c4c(F)cccc4F)nc3C(N)=O)cc2)CC1CCO (centres unmarked) [Example U-24, 2-(2,6-difluorophenyl)-5-(4-(2-(2-hydroxyethyl)-1-methylpiperazine-4-carbonyl)phenylamino)oxazole-4-carboxamide]
16 | > 5.00 |  | > 5.00 | > 5.00 |  | CN1CCN(C(=O)c2ccc(Nc3oc(-c4c(F)cccc4F)nc3C(N)=O)cc2)CC1CO (centres unmarked) [Example U-25, 2-(2,6-difluorophenyl)-5-(4-(2-(hydroxymethyl)-1-methylpiperazine-4-carbonyl)phenylamino)oxazole-4-carboxamide]
17 | > 5.00 |  | > 5.00 | > 5.00 |  | CN1CCN(C(=O)c2ccc(Nc3oc(-c4c(F)cccc4F)nc3C(N)=O)cc2)[C@@H](CO)C1 [Example U-26, (R)-2-(2,6-difluorophenyl)-5-(4-(3-(hydroxymethyl)-1-methylpiperazine-4-carbonyl)phenylamino)oxazole-4-carboxamide]
18 | > 5.00 |  | > 5.00 | > 5.00 |  | CN1CCN(C(=O)c2ccc(Nc3oc(-c4c(F)cccc4F)nc3C(N)=O)cc2)[C@H](CO)C1 [Example U-27, (S)-2-(2,6-difluorophenyl)-5-(4-(3-(hydroxymethyl)-1-methylpiperazine-4-carbonyl)phenylamino)oxazole-4-carboxamide]
19 | > 5.00 |  | > 5.00 | > 5.00 |  | CN1CCN(C(=O)Nc2ccc(Nc3oc(-c4c(F)cccc4F)nc3C(N)=O)cc2)CC1 [Example V-2, N-(4-(4-carbamoyl-2-(2,6-difluorophenyl)oxazol-5-ylamino)phenyl)-4-methyl piperazine-1-carboxamide]
20 | > 5.00 |  | > 5.00 | > 5.00 |  | CNCCC(=O)Nc1ccc(Nc2oc(-c3c(F)cccc3F)nc2C(N)=O)cc1 [Example V-3, 2-(2,6-difluorophenyl)-5-(4-(3-(methylamino)propanamido)phenylamino)oxazole-4-carboxamide]
21 | > 5.00 |  | > 5.00 | > 5.00 |  | NC(=O)c1nc(-c2c(F)cccc2F)oc1Nc1ccc(NC(=O)C2CCCNC2)cc1 (centres unmarked) [Example V-4, N-(4-(4-carbamoyl-2-(2,6-difluorophenyl)oxazol-5-ylamino)phenyl)piperidine-3-carboxamide]
